16 compounds from patent publication US9561228B2 (Celgene Avilomics Research, Inc., priority 2013, dated 2017) can be followed below.

pEC50, pIC50: −log10 of the molar value. Where only a bound is given, the exact number is not on record here.

For one test, the target named is T1, MEK1 activated ERK1 (Homo sapiens, UniProt P27361).
T1 construct: purchased Millipore (Billerica, Mass.) 14-439-K
Nature of the test: Omnia continuous-read kinase assay for potency against MEK1 activated ERK1. The class given is biochemical. To be noted: MEK1 activated ERK1, ATP at KM; read-out: ERK1 Omnia WT ATP KM IC50. Put shortly: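 Apparent IC50 came from initial reaction slopes (RFU vs time) plotted against log inhibitor with a variable-slope fit. Reactions were started with ERK1 (4 nM final) added to 50 μM ATP, roughly at its appKM, and 10 μM Sox-conjugated ST17 peptide in 20 mM Tris pH 7.5, 5 mM MgCl2. Fluorescence was monitored every 71 seconds.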

The next test addresses T2, Erk1 (Homo sapiens, UniProt P27361).
T2 construct: purchased Millipore 14-439
Nature of the test: Protein Mass Modification Assay (intact protein MALDI, 60 min, 10-fold excess of compound). The format is binding. The procedure: Protein Mass Modification Assay
Intact protein: Erk1 from Millipore (Cat. No. 14-439) was incubated for 60 min. at room temperature with a 10-fold excess of test compound to protein. 4 μL aliquots of the resulting mixture were diluted with 15 μL of 0.2% TFA prior to micro C4 ZipTipping directly onto the MALDI target using sinapinic acid as the desorption matrix (10 mg/ml in 0.1% TFA:Acetonitrile 50:50, v/v). The centroid mass of the target protein in the control sample was compared with the centroid mass of the target protein incubated with compound. A shift in the centroid mass of the treated protein compared to the untreated protein was divided by the molecular weight of the compound. This number corresponds to the percentage of modified protein after one hour incubation. Results from this assay are reported in Table A under the column “ERK1 Mass Mod (%).”

Test [1] has as its system ERK1/2 phosphorylation of p90RSK in HT29 cells. The test can be described thus: pRSK MSD Assay in HT29 cells. The class given is cell-based. The following applies: Homo sapiens, HT-29, read-out: ERK1/ERK2 PRSK MSD HT29 EC50. Put shortly: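 Serum-starved HT29 cells (0.1% FBS overnight) treated with test compound for 120 min at 37° C, then lysed with protease and phosphatase inhibitors. Phospho-p90RSK quantified by MSD sandwich immunoassay: RSK capture antibody, phospho-RSK detection antibody plus Sulfo-tagged antibody, electrochemiluminescence read.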

For test [2], the system named is HT-29 cells (colorectal adenocarcinoma). Nature of the test: Inhibition of cancer cell proliferation, HT-29 (CellTiterGlo, 72 hours). The format is cell-based. To be noted: Homo sapiens. In outline: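 HT-29 cells seeded at 3000/well, then treated with 3-fold serial dilutions from a 5,000 nM two-fold solution in serum-free RPMI1640, untreated wells as control, for 72 h at 37° C. CellTiterGlo luminescence converted to cell number via a standard curve; GI50 from percent inhibition versus untreated growth.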
On the technique in general: In ATP-based viability assays light output follows the ATP content of the culture.

T1 sequence (P27361 whole entry): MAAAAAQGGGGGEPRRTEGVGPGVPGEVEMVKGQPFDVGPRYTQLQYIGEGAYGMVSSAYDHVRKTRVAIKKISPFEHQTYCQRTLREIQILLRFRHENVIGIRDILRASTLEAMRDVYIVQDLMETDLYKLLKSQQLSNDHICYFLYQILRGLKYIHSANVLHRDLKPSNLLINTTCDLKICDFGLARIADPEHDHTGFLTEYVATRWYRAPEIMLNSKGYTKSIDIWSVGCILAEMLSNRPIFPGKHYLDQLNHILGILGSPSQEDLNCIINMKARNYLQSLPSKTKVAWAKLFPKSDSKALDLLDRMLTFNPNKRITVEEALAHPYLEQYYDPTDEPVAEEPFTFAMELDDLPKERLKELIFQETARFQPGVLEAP
T2 sequence (P27361 whole entry): as above

In the case of `C/C=C/C(=O)Nc1cc(F)ccc1Nc1nc(N[C@@H]2CCC[C@H](C(N)=O)C2)ncc1Cl` (racemic) [Compound I-113, Rac-cis-(E)-3-((4-((2-(but-2-enamido)-4-fluorophenyl)amino)-5-chloropyrimidin-2-yl)amino)cyclohexanecarboxamide], the pIC50 at MEK1 activated ERK1 was below 6.00. Moreover, the “ERK1 Mass Mod (%)” value at Erk1 is “F (key: E: a mass modification of ≧70%; F: a mass modification of 31-69%; G: a mass modification ≦30%)”. Also, in test [1], the pEC50 is below 6.00.
With `C=CC(=O)Nc1ccccc1Nc1nc(N[C@@H]2CCC[C@H](C(=O)O)C2)ncc1Cl` (racemic) [Compound I-133, Rac-3-((4-((2-acrylamidophenyl)amino)-5-chloropyrimidin-2-yl)amino)-cis-cyclohexanecarboxylic acid], the pIC50 at MEK1 activated ERK1 was 6.30 to 7.00. The “ERK1 Mass Mod (%)” value on Erk1 was “E (a mass modification of ≧70%)”.
With `C=CC(=O)Nc1ccccc1Nc1nc(N[C@@H]2CCC[C@H](C(N)=O)C2)ncc1C(F)(F)F` [Compound I-7, (1S,3R)-3-((4-((2-acrylamidophenyl)amino)-5-(trifluoromethyl)pyrimidin-2-yl)amino)cyclohexanecarboxamide], the 50% growth inhibitory concentration (GI50) in test [2] lay within 501 to 999 nM. In addition, the “ERK1 Mass Mod (%)” value at Erk1 is given as “E (a mass modification of ≧70%)”. For the same compound, in test [1], the pEC50 was 6.00 to 6.30.
`C=CC(=O)Nc1cc(F)ccc1Nc1nc(N[C@H]2CC[C@@H](F)CC2)ncc1C(F)(F)F` [Compound I-8, N-(5-fluoro-2-((2-((cis-4-fluorocyclohexyl)amino)-5-(trifluoromethyl)pyrimidin-4-yl)amino)phenyl)acrylamide]: the negative logarithm of the IC50 (pIC50) at MEK1 activated ERK1 is 6.30 to 7.00. Besides, on Erk1, the “ERK1 Mass Mod (%)” value was “E (a mass modification of ≧70%)”.
Regarding `CC(=O)N1CCC[C@H](Nc2ncc(C(F)(F)F)c(Nc3ccccc3NC(=O)CCCl)n2)C1` [Compound I-21, (S)—N-(2-((2-((1-Acetylpiperidin-3-yl)amino)-5-(trifluoromethyl)pyrimidin-4-yl)amino)phenyl)-3-chloropropanamide], the pIC50 at MEK1 activated ERK1 was 6.30 to 7.00. Further, the “ERK1 Mass Mod (%)” value at Erk1 is reported as “G (a mass modification ≦30%)”. Also, the pEC50 in test [1] was below 6.00.
As to `C=CC(=O)N[C@@H]1CCCC[C@H]1Nc1nc(N[C@H]2CCCN(C(=O)CO)C2)ncc1C(F)(F)F` [Compound I-32, N-((1R,2R)-2-((2-(((S)-1-(2-hydroxyacetyl)piperidin-3-yl)amino)-5-(trifluoromethyl)pyrimidin-4-yl)amino)cyclohexyl)acrylamide], on MEK1 activated ERK1, the pIC50 was 6.30 to 7.00. Also, the “ERK1 Mass Mod (%)” value on Erk1 is reported as “F (a mass modification of 31-69%)”. Further, the pEC50 in test [1] was below 6.00.
`C=CC(=O)Nc1ccccc1Nc1nc(Nc2ccc(N3CCN(C(C)=O)CC3)cc2OC)ncc1C(F)(F)F` [Compound I-66, N-(2-((2-((4-(4-Acetylpiperazin-1-yl)-2-methoxyphenyl)amino)-5-(trifluoromethyl)pyrimidin-4-yl)amino)phenyl)acrylamide]: the pIC50 on MEK1 activated ERK1 is 6.00 to 6.30. Also, the “ERK1 Mass Mod (%)” value at Erk1 was “E (key: E: a mass modification of ≧70%; F: a mass modification of 31-69%; G: a mass modification ≦30%)”.
Consider `C=C(C)S(=O)(=O)Nc1cc(C)ccc1Nc1nc(Nc2cc(C(C)=O)ccc2C)ncc1C(F)(F)F` [Compound I-98, N-(2-((2-((5-acetyl-2-methylphenyl)amino)-5-(trifluoromethyl)pyrimidin-4-yl)amino)-5-methylphenyl)prop-1-ene-2-sulfonamide], for which the pIC50 on MEK1 activated ERK1 was 6.30 to 7.00. For the same compound, the “ERK1 Mass Mod (%)” value at Erk1 was “G (a mass modification ≦30%)”. The pEC50 in test [1] is below 6.00.
For `C=CC(=O)Nc1ccccc1Nc1nc(Nc2ccc(N3CCN(C(C)=O)CC3)cc2OC)ncc1Cl` [Compound I-149, N-(2-((2-((4-(4-acetylpiperazin-1-yl)-2-methoxyphenyl)amino)-5-chloropyrimidin-4-yl)amino)phenyl)acrylamide], the pIC50 at MEK1 activated ERK1 was 6.30 to 7.00. The “ERK1 Mass Mod (%)” value on Erk1 was “E (key: E: a mass modification of ≧70%; F: a mass modification of 31-69%; G: a mass modification ≦30%)”.
In the case of `C=CC(=O)Nc1ccccc1Nc1nc(Nc2ccc(N(CCNC(=O)OC(C)(C)C)C(C)=O)cc2OC)ncc1Cl` [Compound I-174, tert-butyl(2-(N-(4-((4-((2-acrylamidophenyl)amino)-5-chloropyrimidin-2-yl)amino)-3-methoxyphenyl)acetamido)ethyl)carbamate], the pIC50 on MEK1 activated ERK1 was 6.00 to 6.30. In addition, the “ERK1 Mass Mod (%)” value at Erk1 is listed as “E (a mass modification of ≧70%)”.
With `C=CC(=O)Nc1cc(OC)ccc1Nc1nc(Nc2ccc(N3CCC[C@H]3C(N)=O)cc2C#N)ncc1Cl` [Compound I-178, (S)-1-(4-((4-((2-acrylamido-4-methoxyphenyl)amino)-5-chloropyrimidin-2-yl)amino)-3-cyanophenyl)pyrrolidine-2-carboxamide], the pIC50 at MEK1 activated ERK1 was 6.30 to 7.00. Moreover, the “ERK1 Mass Mod (%)” value at Erk1 is “E (a mass modification of ≧70%)”.
Turning to `C=CC(=O)Nc1ccccc1Nc1nc(Nc2cc(C(=O)NOCCO)ccc2C#N)ncc1Cl` [Compound I-202, 3-((4-((2-acrylamidophenyl)amino)-5-chloropyrimidin-2-yl)amino)-4-cyano-N-(2-hydroxyethoxyl)benzamide], the pIC50 on MEK1 activated ERK1 is 6.30 to 7.00. Further, on Erk1, the “ERK1 Mass Mod (%)” value is “F (a mass modification of 31-69%)”.
As for `C=CC(=O)Nc1ccccc1Nc1nc(Nc2cc(C(N)=O)ccc2C(F)(F)F)ncc1Cl` [Compound I-220, 3-((4-((2-acrylamidophenyl)amino)-5-chloropyrimidin-2-yl)amino)-4-(trifluoromethyl)benzamide], the pIC50 on MEK1 activated ERK1 is 6.30 to 7.00. On Erk1, the “ERK1 Mass Mod (%)” value is recorded as “E (a mass modification of ≧70%)”. Moreover, the pEC50 in test [1] is 6.00 to 6.30.
Consider `C#CCOc1cc(C)c(Nc2ncc(Cl)c(Nc3ccccc3NC(=O)C=C)n2)cc1C(N)=O` [Compound I-228, 5-((4-((2-acrylamidophenyl)amino)-5-chloropyrimidin-2-yl)amino)-4-methyl-2-(prop-2-yn-1-yloxy)benzamide], for which the pIC50 on MEK1 activated ERK1 was 6.30 to 7.00. Also, the “ERK1 Mass Mod (%)” value on Erk1 was “E (a mass modification of ≧70%)”. The pEC50 in test [1] is 6.30 to 7.00.
In the case of `C=C(C)S(=O)(=O)Nc1cc(F)ccc1Nc1nc(Nc2cc(C(C)=O)ccc2C)ncc1Cl` [Compound I-243, N-(2-((2-((5-acetyl-2-methylphenyl)amino)-5-chloropyrimidin-4-yl)amino)-5-fluorophenyl)prop-1-ene-2-sulfonamide], the pIC50 at MEK1 activated ERK1 is below 6.00. Further, the “ERK1 Mass Mod (%)” value at Erk1 is reported as “G (a mass modification ≦30%)”. The pEC50 in test [1] was below 6.00.
In the case of `C=CC(=O)Nc1cc(OC)ccc1Oc1nc(Nc2ccc(N3CCC[C@@H]3CO)cc2OC)ncc1C(N)=O` [Compound I-264, (R)-4-(2-acrylamido-4-methoxyphenoxy)-2-((4-(2-(hydroxymethyl)pyrrolidin-1-yl)-2-methoxyphenyl)amino)pyrimidine-5-carboxamide], the pIC50 on MEK1 activated ERK1 is below 6.00. Further, the “ERK1 Mass Mod (%)” value on Erk1 is listed as “F (a mass modification of 31-69%)”.

The pIC50 is the IC50 on a negative log10 scale, so that one unit is a factor of ten. What is called GI50 is the concentration giving 50% growth inhibition. High values mean less potent growth inhibition, low ones more potent growth inhibition.
